{"source": "patent US12104178B2", "about": "“DHFR tunable protein regulation” (Obsidian Therapeutics, Inc., priority 2017, dated 2024)", "molecules": {"B1": {"name": "OT-hDHFRN-007: hDHFR L94A, T147A-GFP (protein, UniProt P00374 1-187, looked up, variant L94A T147A)", "Dihydrofolate reductase": "MVGSLNCIVAVSQNMGIGKNGDLPWPPLRNEFRYFQRMTTTSSVEGKQNLVIMGKKTWFSIPEKNRPLKGRINLVLSRELKEPPQGAHFLSRSADDALKLTEQPELANKVDMVWIVGGSSVYKEAMNHPGHLKLFVTRIMQDFESDAFFPEIDLEKYKLLPEYPGVLSDVQEEKGIKYKFEVYEKND", "modifications": "GFP fusion", "notes": "hDHFR L94A, T147A-GFP"}, "B2": {"name": "OT-hDHFRC-015: GFP-hDHFR (A125F, Y122I) (protein, UniProt P00374 1-187, looked up, variant A125F Y122I)", "Dihydrofolate reductase": "B1 Dihydrofolate reductase with A94L, Y122I, A125F, A147T", "modifications": "N-terminal GFP fusion"}, "B3": {"name": "OT-hDHFRN-008: hDHFR G21T, Y122I-GFP (protein, UniProt P00374 1-187, looked up, variant G21T Y122I)", "Dihydrofolate reductase": "B1 Dihydrofolate reductase with G21T, A94L, Y122I, A147T", "modifications": "GFP fusion", "notes": "hDHFR G21T, Y122I-GFP"}}, "key": {"HCT-116": {"system": "HCT-116", "test": "Surface expression of IL15-IL15Ra fusion constructs, PE-IL15Ra antibody FACS", "assay_type": "cell-based, human", "settings": "for Median Fluorescence Intensity, surface IL15-IL15Ra: 24 h", "protocol": "Membrane bound-IL15-IL15Ra constructs (OT-IL15-008 to OT IL-15-011) were transduced into human colorectal carcinoma cell line, HCT-116 and stable integrants were selected with 2 μg of puromycin.\nSurface expression of IL15-IL15Ra fusion constructs was examined by staining with PE-conjugated IL15Ra antibody (Cat no. 330207, Biolegend, San Diego, CA). The median fluorescence intensity obtained with the different constructs in the presence or absence of the corresponding ligand is presented in Table 53. The stabilization ratio was calculated as the fold change in fluorescence intensity in ligand treated samples compared to treatment with DMSO (i.e. in the absence of ligand) with the same construct. The destabilization ratio was calculated as the fold change in fluorescence intensity in the DD regulated constructs compared to the constitutive construct (OT-IL15-008) in the absence of the ligand. Destabilization ratios less than 1 and stabilization ratios greater than 1 are desired in DDs.\nMembrane bound-IL15-IL15Ra constructs (OT-IL15-008 to OT IL15-011) were transduced into human colorectal carcinoma cell line, HCT-116 and stable integrants were selected with 2 μg of puromycin.\nSurface expression of IL15-IL15Ra fusion constructs was examined by staining with PE-conjugated IL15Ra antibody (Cat no. 330207, Biolegend, San Diego, CA). The median fluorescence intensity obtained with the different constructs in the presence or absence of the corresponding ligand is presented in Table 55.\nThe stabilization ratio was calculated as the fold change in GFP intensity in ligand treated samples compared to treatment with DMSO (i.e. in the absence of ligand) with the same construct. The destabilization ratio was calculated as the fold change in GFP intensity in the DD regulated constructs compared to the constitutive construct (OT-IL15-008) in the absence of the ligand. Destabilization ratios less than 1 and stabilization ratios greater than 1 are desired in DDs."}, "HEK-293T cells": {"system": "HEK-293T cells", "test": "IL15 western blot of DD IL15-IL15Ra, transient transfection", "assay_type": "cell-based, human", "settings": "10 μM Trimethoprim or 1 μM Shield-1, 24 h", "protocol": "To test ligand dependent IL15-IL15Ra production, 1 million HEK-293T cells were plated in a 6-well plate in growth media containing DMEM and 10 FBS and incubated overnight at 37° C., 5% CO2. […] Cells were harvested and IL15 levels are analyzed via western blotting using human IL15 antibody (Abcam, Cambridge, UK)."}, "T cells": {"system": "T cells", "test": "IL12/IL2 effect on T cell expansion and IFNgamma positive CD4+/CD8+ T cells", "assay_type": "cell-based, human", "text": "The goal of the study was to determine the T cell stimulation regimen and dose of IL12 needed to maximize T cell persistence and T cell differentiation in vitro, to mimic an in vivo adoptive cell transfer therapy regimen. The study recapitulates the design of the adoptive cell therapy regimen wherein the T cells were initially exposed to the antigen in vitro which results in activation followed by a resting phase and finally in vivo transfer where the T cells encounter the antigen again. T cells were stimulated CD3/CD28 beads or soluble CD3/CD28 on day 0 and the CD3/CD28 stimulus was washed off at the end of 48 hours. Cells were treated with a dose of IL12 ranging from 0.01-1000 ng/mL. On day 9, the Th1 phenotype of the cells was evaluated by examining the frequency of IFNgamma positive CD4+ cells and CD8+ cells. On day 14, cells were divided into two groups—one group received a second CD3/CD28 stimulation and a second group that was not stimulated. On day 16, the Th1 phenotype was evaluated in both groups using FACS.\nTo test the requirement of IL2 and IL12 for T cells expansion and activation, T cells were stimulated with soluble CD3/CD28, CD3/CD28 Dynabeads or left unstimulated for two days. Each of these groups was further split into two sub groups. One sub group was treated with IL2 and 100 ng/ml of IL12 while the second sub group was treated with IL2 only for the duration of the stimulation. For the soluble CD3/CD28 stimulated cells, a third subgroup that was only treated with 100 ng/ml of IL12 was also included.\nThe effect of IL12 on T cell activation was measured by determining the frequency of IFNgamma positive CD4+ and CD8+ T cells. IFNg is produced by activated T cells. Three different stimulation protocols were used. In the first protocol, cells were stimulated with CD3/CD28 dynabeads for 2 days, following which the beads were washed off and the cells were treated with varying concentrations of IL12 for 7 days (from day 2 to day 9). At day 9, cells were restimulated with soluble CD3/CD28 and the frequency of IFNgamma positive cells was determined by FACS. […] In the second protocol, following 2 day CD3/CD28 dynabeads stimulation, T cells were maintained in culture for a longer duration of 14 days i.e. from day 2 to day 16. At day 16, cells were restimulated with soluble CD3/CD28. At day 16, the frequency of IFNgamma positive cells was measured. […] In the third protocol, T cells were initially stimulated for 2 days with CD3/CD28 dynabeads and IL2, followed by treatment with IL2 only for 9 days (i.e. from day 2 to day 11), followed by IL12 treatment for 2 to 5 days. In the last two days of the experiment, cells were also restimulated with soluble CD3/CD28. IFNgamma positive CD4 and CD8 cells were measured using FACS. The third protocol mimics the environment that is presented to T cells in adoptive cell therapy, both during in vitro transduction and T cells expansion as well as the in vivo."}, "Human T cells": {"system": "Human T cells", "test": "IL12 induced differentiation of human T cells, IFN gamma / CD3 flow cytometry", "assay_type": "cell-based", "settings": "IL12 treated (untreated 0.21)", "protocol": "IL12 promotes the differentiation of naïve T cells into Th1 cells which results in the secretion of IFN gamma from T cells. Human T cells were treated with IL12 or left untreated and analyzed by flow cytometry for the expression of IFN gamma and T cell marker CD3."}, "NK-92 cells": {"system": "NK-92 cells", "test": "NK-92 activation markers with IL12 (Table 83)", "assay_type": "cell-based", "settings": "IL12 10 ng/ml, 18 h", "protocol": "The dependency of the NK-92 cells on cytokines for activation was tested. […] The cells were cultured for 18 hours in the presence of IL12 (10 ng/ml) or varying concentrations of IL15 (100 ng/ml, 20 ng/ml, 4 ng/ml, 0.8 ng/ml, 0.16 ng/ml, 0.032 ng/ml, 0.0064 ng/ml and 0.00128 ng/ml). NK-92 cell activation in response to IL15 and IL12 treatment was evaluated by FACS analysis using a panel of markers whose increased expression is associated with NK activation. These include NKG2D, CD71, CD69; chemokine receptors such as CCR5, CXCR4, and CXCR3, Perforin, Granzyme B and Interferon gamma (IFNg). Prior to FACS analysis for IFNg, cells were cultured for 4 hours with Brefeldin A. NK cells respond to external stimuli such as cytokines in their environment through the phosphorylation of proteins JAK/STAT, ERK, and p38/MAPK pathways which are important for cell activation, signaling and differentiation pathways. The phosphorylation of AKT, STAT3 and STAT5 in response to cytokine addition was measured by FACS. Since phosphorylation events are transient NK-92 cells were treated with the cytokines for 15 or 60 minutes, prior to the analysis."}, "NIH 3T3 cells": {"system": "NIH 3T3 cells", "test": "hDHFR mutant-GFP reporter stability with DMSO, MTX or TMP (FACS)", "assay_type": "cell-based", "settings": "for GFP intensity Fold Change vs DMSO: 48 h; for Destabilizing mutation co-efficient: GFP intensity vs hDHFR (WT); for Destabilizing mutation co-efficient / Median Fluorescence signal with DMSO: no ligand; for Median Fluorescence signal with DMSO: hDHFR-GFP, DMSO 48 h", "description": "Known destabilizing mutations in E. coli DHFR (ecDHFR) were mapped onto the structure of human DHFR (hDHFR) and corresponding mutations in wild type hDHFR protein were generated using site directed mutagenesis. hDHFR mutants were then fused to a linker, GGSGGG (SEQ ID NO: 2728) and a GFP reporter gene at the N terminus. […] The hDHFR N terminus mutant construct cloned into pLVX. IRES. The reporter constructs were transfected into NIH 3T3 cells. […] DMSO was used as control. Fluorescence signal was measured by FACS and median fluorescence signal intensity was calculated. The destabilizing mutation co-efficient was calculated as the fold change in GFP intensity in the hDHFR mutant constructs compared to the hDHFR (WT) in the absence of the ligand. Destabilizing mutation co-efficients less than 1 are desired in DDs.\nPercentage of GFP positive cells as a measure of ligand dependent DD stabilization in each transfection was calculated using FACS Calibur™ (see Table 46)."}, "hDHFR": {"system": "hDHFR", "test": "Immunoblot of hDHFR WT and mutants after TMP, MTX or DMSO", "assay_type": "cell-based, human", "settings": "MTX or DMSO 48 h", "description": "The results were consistent using both the AcGFP antibody as well as the hDHFR antibody."}, "HEK 293T cells": {"system": "HEK 293T cells", "test": "GFP-hDHFR C terminus fusions, MFI (FACS)", "assay_type": "cell-based, human", "settings": "1 μM MTX or 50 μM TMP, 48 h", "protocol": "DDs may be positioned upstream or downstream of the payload within an SRE. hDHFR mutants generated by structure guided mutagenesis as discussed in example 2 were fused at the C-terminus of GFP to test if the hDHFR mutants can destabilize proteins of interest when fused to the C-terminus of the protein of interest. A linker, GGSGGG (SEQ ID NO. 6413) was placed between GFP and hDHFR and cloned into pLVX.IRES. Puro.\nFollowing the incubation, median fluorescence intensity (MFI) was measured using FACS."}}, "note": "Substitutions are numbered along the chain they refer to. Numbers in names are those of the source.", "data": [{"molecule": "OT-IL15-006: IL15-IL15Ra fusion with ecDHFR (R12Y, E129K) DD", "values": [{"measurement": "Median Fluorescence Intensity, surface IL15-IL15Ra", "setting": "HCT-116; 10 μM TMP", "result": 2978}, {"measurement": "Median Fluorescence Intensity, surface IL15-IL15Ra", "setting": "HCT-116; DMSO", "result": 764}, {"measurement": "Stabilization ratio", "setting": "HCT-116; TMP vs DMSO", "result": 3.90}, {"measurement": "Destabilization ratio", "setting": "HCT-116; vs constitutive OT-IL15-008, no ligand", "result": 0.14}, {"measurement": "IL15 stabilization by western blot (FIG. 24A)", "setting": "HEK-293T cells", "result": "modest ligand dependent stabilization of IL15"}]}, {"molecule": "IL12: cytokine added to T cells or NK-92 cells", "values": [{"measurement": "Requirement for T cell expansion (FIG. 37A)", "setting": "T cells; 14 days, CD3/CD28 stimulation", "result": "may be dispensable"}, {"measurement": "IL12 dose causing Th1-skewing and IFN gamma production", "setting": "T cells; T cells in vitro, day 16", "result": 0.1, "unit": "ng/mL"}, {"measurement": "EC50, IFNgamma positive cells", "setting": "T cells; first protocol (7 days IL12), CD8 cells", "result": 0.05, "unit": "ng/mL"}, {"measurement": "EC50, IFNgamma positive cells", "setting": "T cells; second protocol (14 days), CD4 cells", "result": 0.012, "unit": "ng/mL"}, {"measurement": "EC50, IFNgamma positive cells", "setting": "T cells; second protocol (14 days), CD8 cells", "result": 0.065, "unit": "ng/mL"}, {"measurement": "EC50, IFNgamma positive cells", "setting": "T cells; third protocol, IL12 final 5 days, CD4 cells", "result": 0.024, "unit": "ng/mL"}, {"measurement": "EC50, IFNgamma positive cells", "setting": "T cells; third protocol, IL12 final 5 days, CD8 cells", "result": 0.04, "unit": "ng/mL"}, {"measurement": "Percentage of IFN gamma positive T cells", "setting": "Human T cells", "result": 22.3, "unit": "%"}, {"measurement": "Fold change in MFI vs untreated, CCR5", "setting": "NK-92 cells", "result": 1.60}, {"measurement": "Fold change in MFI vs untreated, Granzyme", "setting": "NK-92 cells", "result": 1.87}, {"measurement": "Fold change in MFI vs untreated, IFNg", "setting": "NK-92 cells", "result": 1.74}, {"measurement": "Fold change in MFI vs untreated, Perforin", "setting": "NK-92 cells", "result": 1.67}, {"measurement": "Fold change vs untreated, IFNg (supernatant)", "setting": "NK-92 cells", "result": 666.15}]}, {"molecule": "B1", "values": [{"measurement": "% GFP positive cells", "setting": "NIH 3T3 cells; 1 μM MTX", "result": 40.7, "unit": "%"}, {"measurement": "GFP intensity Fold Change vs DMSO", "setting": "NIH 3T3 cells; 1 μM MTX", "result": 4.46}, {"measurement": "% GFP positive cells", "setting": "NIH 3T3 cells; 10 μM TMP", "result": 0.52, "unit": "%"}, {"measurement": "GFP intensity Fold Change vs DMSO", "setting": "NIH 3T3 cells; 10 μM TMP", "result": 1.00}, {"measurement": "% GFP positive cells", "setting": "NIH 3T3 cells; DMSO", "result": 0.26, "unit": "%"}, {"measurement": "Destabilizing mutation co-efficient", "setting": "NIH 3T3 cells", "result": 0.15}, {"measurement": "Median Fluorescence signal with DMSO", "setting": "NIH 3T3 cells", "result": 2.67}, {"measurement": "Protein level stabilization (immunoblot, FIG. 19)", "setting": "hDHFR", "result": "stabilization exclusively with MTX"}]}, {"molecule": "B2", "values": [{"measurement": "MFI change over DMSO, GFP-hDHFR C terminus fusion (FIG. 20)", "setting": "HEK 293T cells", "result": "several fold increase in MFI over DMSO with both MTX and TMP"}]}, {"molecule": "B3", "values": [{"measurement": "% GFP positive cells", "setting": "NIH 3T3 cells; 1 μM MTX", "result": 86.6, "unit": "%"}, {"measurement": "GFP intensity Fold Change vs DMSO", "setting": "NIH 3T3 cells; 1 μM MTX", "result": 14.53}, {"measurement": "% GFP positive cells", "setting": "NIH 3T3 cells; 10 μM TMP", "result": 2.92, "unit": "%"}, {"measurement": "GFP intensity Fold Change vs DMSO", "setting": "NIH 3T3 cells; 10 μM TMP", "result": 1.30}, {"measurement": "% GFP positive cells", "setting": "NIH 3T3 cells; DMSO", "result": 0.61, "unit": "%"}, {"measurement": "Destabilizing mutation co-efficient", "setting": "NIH 3T3 cells", "result": 0.18}, {"measurement": "Median Fluorescence signal with DMSO", "setting": "NIH 3T3 cells", "result": 3.27}, {"measurement": "Protein level stabilization (immunoblot, FIG. 19)", "setting": "hDHFR", "result": "stabilization exclusively with MTX"}]}]}
